The test system of experiment [1] is Human Breast Cancer Cell Line (MCF-7). As to the kind of experiment: Tumor cell proliferation assay (MTT), MCF-7. In kind it is cell-based. As to conditions: for inhibition at 10 µM: MCF7, concentration of 10^−5 mol/L, preliminary screening, 72 hours, read-out: Inhibition rate % MCF-7; for IC50: MCF7, secondary screening, 48 hours. The source says: (§1) The assay used generally is the blue tetrazolium bromide (MTT) method. […] The amount of formazan can be detected by the microplate reader through the absorption value at 570 nm. The amount of formazan product generated is proportional to the number of living cells in the sample, so the OD value may reflect the number of living cells and the ability of a test drug to inhibit or kill cells. The MTT assay may be used in determining the ability of different compounds of the present invention to inhibit one or more cancer cells proliferation. Similar assays can be designed along the same lines for any cancer cell using techniques well known in the art.
(§2) The assay used generally is the blue tetrazolium bromide (MTT) method. […] Intracellular purple formazan salt crystals can be solved in DMSO and the absorption value at 570 nm is detected by the microplate reader, then the number of living cells can be detected indirectly. So MTT assay may be used to determine the ability of a compound of the present invention to inhibit cell proliferation. Similar assays can be designed along the same lines for any cancer cell using techniques well known in the art.
2.2.9 Human Breast Cancer Cell Line (MCF-7);
The cells of 2.2.8, 2.2.9 cultured in DMEM/High glucose medium containing 12% calf serum in the condition of 37° C., 5% CO2.
(§3) 2.3.1 Cell seeding: Trypsinize the cell by 0.05% trypsin-EDTA and add RPMI 1640 medium (DMEM or 5A) containing 12% calf serum. Count the number, then dilute to 1.67×10^4/ml. Add 180 ul/well to the 96 well plate (3000 cells/well).
(§4) 2.3.2 Culture: cells are incubated for 24 hours at 37° C. under 5% CO2.
(§5) 2.3.3 Preliminary screening: The compounds are firstly diluted to 0.1 mol/L with DMSO, and then diluted to three concentrations of 10^−5 mol/L, 10^−6 mol/L and 10^−7 mol/L. Add 20 ul test compounds to the 96 well plate and incubate for 72 hours. Each group has three parallel wells and all experiments repeat three times. Each inhibition ratio is calculated, then an average value of three times is taken as the measured value. 2.3.4 Staining 2.3.4.1 Attached cell: add 20 ul/well MTT to the 96-well plates; incubate for 4 hours in the incubator. Pour out the culture medium in the well and add 100 ul/well DMSO. Shake the plate for 5 min. 2.3.4.2 Suspension cell: add 20 ul/well MTT to the 96-well plates; incubate for 4 hours in the incubator. Add 50 ul/well 20% SDS and incubate for overnight in the incubator. 2.3.5 Reading the plates: read the absorbance A570-A630 with the Infinite M200 microtiter plate reader. Calculate the inhibition ratio of the test compounds. 2.3.6 Secondary screening: the compounds whose inhibition ratio is greater than 50% at the concentrations of 10^−5 mol/L in the preliminary screening will be picked out for Secondary screening. Dilute these compounds to ten concentrations: 10^−5 mol/L, 0.5×10^−5 mol/L, 10^−6 mol/L, 0.8×10^−6 mol/L, 0.6×10^−6 mol/L, 0.4×10^−6 mol/L, 0.2×10^−6 mol/L, 10^−7 mol/L, 0.8×10^−7 mol/L and 0.4×10^−7 mol/L. Add 20 ul test compound solution to the 96 well plate and incubate for 48 hours. Each group has three parallel wells and all experiments repeat for three times. Read the plates and calculate the inhibition ratio according to the preliminary screening method. 2.3.7 Calculate the Inhibition Ratio of Cell Proliferation and the IC50
(§6) According to the inhibition ratio of cell proliferation at the different concentrations of the compound, inhibition ratio of 50% of the test compound is calculated through the logarithm of the concentration of the compound with the Logit [I] linear regression, and an average value of three times is taken as the measured value of a sample.

Experiment [2] deals with Human Leukemia Line (K562). Briefly: Tumor cell proliferation assay (MTT), K562. In kind it is cell-based. As to conditions: for inhibition at 10 µM: concentration of 10^−5 mol/L, preliminary screening, 72 hours, read-out: Inhibition rate % K562; for IC50: secondary screening, 48 hours.
Source text: as §1, §2
2.2.3 Human Leukemia Line (K562)
The cells of the 2.2.1, 2.2.2, 2.2.3, 2.2.4, 2.2.5 cultured with RPMI 1640 containing 12% calf serum in the condition of 37° C., 5% CO2.
as §3, §4, §5, §6

Regarding `CCN(CC)CCNC(=O)c1c(C)[nH]c2c1CCC/C2=C1/C(=O)Nc2ccc(F)cc21` [I-2, N-(2-(diethylamino)ethyl)-2-methyl-7-[1,2-dihydro-5-fluoro-2-oxo-3H-indol-(Z)-3-ylidene]-4,5,6,7-tetrahydro-1H-indole-3-carboxamide], in experiment [1], the inhibition at 10 µM was found to be 55.4% and the IC50 was determined as 7.88 µM. Besides, in experiment [2], the inhibition at 10 µM is 95.3% and the IC50 turned out to be 3.51 µM.
The corresponding values for `CCN(CC)CCNC(=O)c1c(C)[nH]c2c1CCC/C2=C1/C(=O)Nc2ccccc21` [I-5, N-(2-(diethylamino)ethyl)-2-methyl-7-[1,2-dihydro-2-oxo-3H-indol-(Z)-3-ylidene]-4,5,6,7-tetrahydro-1H-indole-3-carboxamide] are 50.5%, 6.94 µM, 93.3% and 2.94 µM.
With `Cc1[nH]c2c(c1C(=O)NCCO)CCC/C2=C1/C(=O)Nc2ccccc21` [I-8, N-(2-hydroxyethyl)-2-methyl-7-[1,2-dihydro-2-oxo-3H-indol-(Z)-3-ylidene]-4,5,6,7-tetrahydro-1H-indole-3-carboxamide], the inhibition at 10 µM in experiment [1] is 25.2%; in experiment [2] it was 39.4%.
As for `Cc1[nH]c2c(c1C(=O)NCC(O)CN1CCCCC1)CCC/C2=C1/C(=O)Nc2ccccc21` (centres unmarked) [I-73, N-(2-hydroxy-3-(piperidin-1-yl)propyl)-2-methyl-7-[1,2-dihydro-2-oxo-3H-indol-(Z)-3-ylidene]-4,5,6,7-tetrahydro-1H-indole-3-carboxamide], the inhibition at 10 µM in experiment [1] turned out to be 43.4%; in experiment [2] it was 94.8%. The compound also showed an IC50 in experiment [2] of 0.72 µM.
In the case of `Cc1[nH]c2c(c1C(=O)NCC(O)CN1CCCCC1)CCC/C2=C1/C(=O)Nc2ccc(F)cc21` (centres unmarked) [I-74, N-(2-hydroxy-3-(piperidin-1-yl)propyl)-2-methyl-7-[1,2-dihydro-5-fluoro-2-oxo-3H-indol-(Z)-3-ylidene]-4,5,6,7-tetrahydro-1H-indole-3-carboxamide], in experiment [1], the inhibition at 10 µM came to 70.7% and the concentration for half-maximal inhibition (IC50) is 7.01 µM. Further, in experiment [2], the inhibition at 10 µM was determined as 95.1% and the IC50 is 0.93 µM.
